Experimental data published in patent US9708336B2, “Metallo-beta-lactamase inhibitors” (priority 2014, dated 2017).
Where two headings read alike, the source gives them in different places.

Columns and labels:
NDM-1 = NDM-1 (Klebsiella pneumoniae, UniProt C7C422); experiment: biochemical; type: biochemical; settings: read-out: NDM-1 IC50
[1] = system: Serratia marcescens expressing IMP-1 (CL5741); experiment: Antibiotic potentiation activity: synergistic concentration (MITC95) with imipenem, OD600 growth; type: cell-based; settings: for Serratia marcescens expressing IMP-1 (CL5741) MITC95: concentration giving 95% inhibition of bacterial growth
Procedure, shortened: (§1)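 Absorbance after a 22–24 h, 35 °C incubation served as the read-out. Wells held bacteria (saline suspension diluted 1:100 into 1.1× CAMHB), imipenem at 4 μg/ml final or optionally 1 μg/ml, and test compound.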

[2] = system: Escherichia coli expressing NDM-1 (CLB30016); experiment: as above; type: cell-based; settings: for Escherichia coli expressing NDM-1 (CLB 30016) MITC95: concentration giving 95% inhibition of bacterial growth
Procedure, shortened: as §1

[3] = system: Klebsiella pneumoniae expressing VIM-1 (IHMA599644); experiment: as above; type: cell-based; settings: for Klebsiella pneumoniae expressing VIM-1 (IHMA 599644) MITC95: concentration giving 95% inhibition of bacterial growth
Procedure, shortened: as §1

VIM-1 = VIM-1 (Pseudomonas aeruginosa (strain ATCC 15692 / DSM 22644 / CIP 104116 / JCM 14847 / LMG 12228 / 1C / PRS 101 / PAO1), UniProt A0A0F7KYQ8); experiment: Enzyme activity: determination of IC50, fluorescence assay with CCF2-FA substrate (VIM-1); type: biochemical
IMP-1 = IMP-1 (Serratia marcescens, UniProt P52699); experiment: biochemical; type: biochemical
[4] = fluorescence assay with CCF2-FA substrate
[5] = fluorescence assay with CCF2-FA substrate, read-out: VIM-1 IC50
[6] = fluorescence assay with CCF2-FA substrate, read-out: IMP-1 IC50
[7] = NDM-1 enzyme, CCF2-FA substrate
[8] = Serratia marcescens CL5741 (IMP-1), 95% growth inhibition
[9] = (CLB30016, NDM-1), 95% growth inhibition
[10] = Klebsiella pneumoniae IHMA599644 (VIM-1), 95% growth inhibition
[11] = VIM-1 enzyme, CCF2-FA substrate, read-out: VIM-1 IC50
[12] = IMP-1 enzyme, CCF2-FA substrate, read-out: IMP-1 IC50
[13] = CL5741 (IMP-1), 95% inhibition of bacterial growth
[14] = CLB30016 (NDM-1), 95% inhibition of bacterial growth
[15] = IHMA599644 (VIM-1), 95% inhibition of bacterial growth
[16] = NDM-1 enzyme, CCF2-FA fluorescence assay
[17] = Serratia marcescens expressing IMP-1 (CL5741), 95% growth inhibition
[18] = Escherichia coli expressing NDM-1 (CLB30016), 95% growth inhibition
[19] = Klebsiella pneumoniae expressing VIM-1 (IHMA599644), 95% growth inhibition
[20] = VIM-1 enzyme, CCF2-FA fluorescence assay, read-out: VIM-1 IC50
[21] = IMP-1 enzyme, CCF2-FA fluorescence assay, read-out: IMP-1 IC50
[22] = VIM-1 IC50, VIM-1 enzyme, CCF2-FA substrate
[23] = VIM-1 IC50, fluorescence assay with CCF2-FA substrate

IMP-1, sequence (P52699 whole entry, looked up): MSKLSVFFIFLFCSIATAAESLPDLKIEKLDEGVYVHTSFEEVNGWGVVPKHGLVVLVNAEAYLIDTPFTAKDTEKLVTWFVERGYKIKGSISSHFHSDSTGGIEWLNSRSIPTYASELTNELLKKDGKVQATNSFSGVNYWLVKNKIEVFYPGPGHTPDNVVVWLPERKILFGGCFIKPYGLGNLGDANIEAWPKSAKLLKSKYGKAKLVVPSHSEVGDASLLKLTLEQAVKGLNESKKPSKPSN
NDM-1, sequence (C7C422 whole entry, looked up, species assumed): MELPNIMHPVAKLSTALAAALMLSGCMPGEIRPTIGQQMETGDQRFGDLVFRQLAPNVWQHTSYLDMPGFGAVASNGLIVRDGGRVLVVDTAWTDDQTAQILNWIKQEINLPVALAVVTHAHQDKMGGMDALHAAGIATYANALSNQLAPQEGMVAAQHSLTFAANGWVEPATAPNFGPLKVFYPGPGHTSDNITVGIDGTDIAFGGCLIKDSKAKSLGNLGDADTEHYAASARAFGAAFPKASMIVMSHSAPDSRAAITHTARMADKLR

NS(=O)(=O)c1nccc(NCCc2ccccc2)c1-c1nnn[nH]1 [Example 237, 4-[(2-phenylethyl)amino]-3-(1H-tetrazol-5-yl)pyridine-2-sulfonamide]
IC50 (NDM-1; [4]): 102 nM | Serratia marcescens expressing IMP-1 (CL5741) MITC95 [1]: 125 µM | Escherichia coli expressing NDM-1 (CLB 30016) MITC95 [2]: 18.75 µM | Klebsiella pneumoniae expressing VIM-1 (IHMA 599644) MITC95 [3]: >200 µM | IC50 (VIM-1; [5]): 239 nM | IC50 (IMP-1; [6]): 581 nM

NS(=O)(=O)c1c(C(F)(F)F)ccc(N2CCCC(CO)C2)c1-c1nnn[nH]1 (stereo not drawn) [Example 659, 3-[3-(hydroxymethyl)piperidin-1-yl]-2-(1H-tetrazol-5-yl)-6-(trifluoromethyl)benzenesulfonamide]
IC50 (NDM-1; [7]): 18.8 nM | Serratia marcescens MITC95 [1, 8]: 2.344 µM | Escherichia coli MITC95 [2, 9]: 15.63 µM | Klebsiella pneumoniae MITC95 [3, 10]: 25 µM | IC50 (VIM-1; [11]): 6.4 nM | IC50 (IMP-1; [12]): 36.3 nM

CC(CCCN)N[C@H]1CC[C@H](c2ccc(C(F)(F)F)c(S(N)(=O)=O)c2-c2nnn[nH]2)CC1 (stereo partly drawn) [Example 688, 3-{4-[(4-amino-1-methylbutyl)amino]cyclo-hexyl)-2-(1H-tetrazol-5-yl)-6-(trifluoromethyl)benzene sulfonamide]
IC50 (NDM-1; [7]): 44.1 nM | Serratia marcescens MITC95 [1, 8]: 6.25 µM | Escherichia coli MITC95 [2, 9]: 1.563 µM | Klebsiella pneumoniae MITC95 [3, 10]: 12.5 µM | IC50 (VIM-1; [11]): 13.4 nM | IC50 (IMP-1; [12]): 158 nM

NS(=O)(=O)c1cccc(-c2ccc(N3CCC(CO)C3)nc2)c1-c1nnn[nH]1 (stereo not drawn) [Example 622, 3-[6-[3-(hydroxymethyl)pyrrolidin-1-yl]-3-pyridyl]-2-(1H-tetrazol-5-yl)benzenesulfonamide]
IC50 (NDM-1; [7]): 4.39 nM | Serratia marcescens MITC95 [1, 8]: 6.25 µM | Escherichia coli MITC95 [2, 9]: 0.9766 µM | Klebsiella pneumoniae MITC95 [3, 10]: >200 µM | IC50 (VIM-1; [11]): 142 nM | IC50 (IMP-1; [12]): 85.6 nM

NS(=O)(=O)c1c(C(F)(F)F)ccc(-c2ccc(C3CN(C4CC5(CCNCC5)C4)C3)cc2)c1-c1nnn[nH]1 [Example 805, 4′-[1-(7-azaspiro[3.5]non-2-yl)azetidin-3-yl]-2-(1H-tetrazol-5-yl)-4-(trifluoromethyl)biphenyl-3-sulfonamide]
IC50 (NDM-1; [4]): 3.77 nM | Serratia marcescens MITC95 [1, 13]: 6.25 µM | Escherichia coli MITC95 [2, 14]: 3.125 µM | Klebsiella pneumoniae MITC95 [3, 15]: 50 µM | IC50 (VIM-1; [5]): 19.7 nM | IC50 (IMP-1; [6]): 7.58 nM

NS(=O)(=O)c1cccc(-c2cccc3scnc23)c1-c1nnn[nH]1 [Example 422, 3-(Benzo[d]thiazol-4-yl)-2-(1H-tetrazol-5-yl)benzenesulfonamide]
IC50 (NDM-1; [16]): 1.3 nM | Serratia marcescens MITC95 [1, 17]: 25 µM | Escherichia coli MITC95 [2, 18]: 3.125 µM | Klebsiella pneumoniae MITC95 [3, 19]: 100 µM | IC50 (VIM-1; [20]): 22.6 nM | IC50 (IMP-1; [21]): 56 nM

NC[C@H]1CC[C@@H](c2ccc(C(F)(F)F)c(S(N)(=O)=O)c2-c2nnn[nH]2)CC1 [Example 500, 3-(cis 4-(Aminomethyl)cyclohexyl)-2-(1H-tetrazol-5-yl)-6-(trifluoromethyl)benzenesulfonamide]
IC50 (NDM-1; [7]): 3.52 nM | Serratia marcescens MITC95 [1, 8]: 1.563 µM | Escherichia coli MITC95 [2, 9]: 2.344 µM | Klebsiella pneumoniae MITC95 [3, 10]: 31.25 µM | IC50 (VIM-1; [11]): 12.2 nM | IC50 (IMP-1): 9.86 nM

NS(=O)(=O)c1cccc(-c2ccnc3ncccc23)c1-c1nnn[nH]1 [Example 406, 3-(1,8-naphthyridin-4-yl)-2-(1H-tetrazol-5-yl)benzenesulfonamide]
IC50 (NDM-1; [16]): 1.65 nM | Serratia marcescens MITC95 [1, 17]: 6.25 µM | Escherichia coli MITC95 [2, 18]: 1.172 µM | Klebsiella pneumoniae MITC95 [3, 19]: 3.125 µM | IC50 (VIM-1; [20]): 1.74 nM | IC50 (IMP-1; [21]): 250 nM

NC[C@H]1CC[C@H](Cc2ccc(-c3ccc(N)nc3)c(-c3nnn[nH]3)c2S(N)(=O)=O)CC1 [Example 579, 6-(((1r,4r)-4-(aminomethyl)cyclohexyl)methyl)-3-(6-aminopyridin-3-yl)-2-(1H-tetrazol-5-yl)benzenesulfonamide]
IC50 (NDM-1; [7]): 1.64 nM | Serratia marcescens MITC95 [1, 8]: 3.125 µM | Escherichia coli MITC95 [2, 9]: 0.7813 µM | Klebsiella pneumoniae MITC95 [3, 10]: 12.5 µM | IC50 (VIM-1; [22]): 3.12 nM | IC50 (IMP-1; [12]): 17.8 nM

NS(=O)(=O)c1c(C(F)(F)F)ccc(C2CCCCC2)c1-c1nnn[nH]1 [Example 491, 3-cyclohexyl-2-(1H-tetrazol-5-yl)-6-(trifluoromethyl)benzenesulfonamide]
IC50 (NDM-1; [7]): 0.435 nM | Serratia marcescens MITC95 [1, 8]: 0.0625 µM | Escherichia coli MITC95 [2, 9]: 0.6406 µM | Klebsiella pneumoniae MITC95 [3, 10]: 3.792 µM | IC50 (VIM-1; [11]): 0.505 nM | IC50 (IMP-1; [12]): 1.11 nM

N[C@@H]1CCCN(c2ccc(-c3ccc(C(F)(F)F)c(S(N)(=O)=O)c3-c3nnn[nH]3)cc2)C1 [Example 727, 4′-[(3R)-3-aminopiperidin-1-yl]-2-(1H-tetrazol-5-yl)-4-(trifluoromethyl)biphenyl-3-sulfonamide]
IC50 (NDM-1; [7]): 2.13 nM | Serratia marcescens MITC95 [1, 8]: 3.125 µM | Escherichia coli MITC95 [2, 9]: 3.125 µM | Klebsiella pneumoniae MITC95 [3, 10]: 25 µM | IC50 (VIM-1; [11]): 0.914 nM | IC50 (IMP-1; [12]): 1.97 nM

N=C(N)N1CCC2(CC1)CCN(c1ccc(C(F)(F)F)c(S(N)(=O)=O)c1-c1nnn[nH]1)CC2 [Example 822, 9-[3-sulfamoyl-2-(1H-tetrazol-5-yl)-4-(trifluoromethyl)phenyl]-3,9-diazaspiro[5.5]undecane-3-carboxamidine]
IC50 (NDM-1; [4]): 1.44 nM | Serratia marcescens MITC95 [1, 13]: 0.0938 µM | Escherichia coli MITC95 [2, 14]: 0.6406 µM | Klebsiella pneumoniae MITC95 [3, 15]: 1.086 µM | IC50 (VIM-1; [23]): 0.195 nM | IC50 (IMP-1; [6]): 2.25 nM

Nc1nc2c(-c3ccc(CCO)c(S(N)(=O)=O)c3-c3nn[nH]n3)cccc2s1 [Example 531, 3-(2-Aminobenzo[d]thiazol-4-yl)-6-(2-hydroxyethyl)-2-(2H-tetrazol-5-yl)benzenesulfonamide]
IC50 (NDM-1; [7]): 2.07 nM | Serratia marcescens MITC95 [1, 8]: 12.5 µM | Escherichia coli MITC95 [2, 9]: 6.25 µM | Klebsiella pneumoniae MITC95 [3, 10]: 12.5 µM | IC50 (VIM-1; [11]): 8.36 nM | IC50 (IMP-1; [12]): 32.1 nM

NC1CCCC(N[C@H]2CC[C@H](c3ccc(C(F)(F)F)c(S(N)(=O)=O)c3-c3nnn[nH]3)CC2)C1 (stereo partly drawn) [Example 687, 3-{4-[(3-aminocyclohexyl)amino]cyclohexyl}-2-(1H-tetrazol-5-yl)-6-(trifluoromethyl)benzene sulfonamide]
IC50 (NDM-1; [7]): 25.2 nM | Serratia marcescens MITC95 [1, 8]: 6.25 µM | Escherichia coli MITC95 [2, 9]: 3.125 µM | Klebsiella pneumoniae MITC95 [3, 10]: 25 µM | IC50 (VIM-1; [22]): 27.8 nM | IC50 (IMP-1; [12]): 94.3 nM

NS(=O)(=O)c1cccc(-c2cccc3ccoc23)c1-c1nn[nH]n1 [Example 522, 3-(Benzofuran-7-yl)-2-(2H-tetrazol-5-yl)benzenesulfonamide]
IC50 (NDM-1; [7]): 3.4 nM | Serratia marcescens MITC95 [1, 8]: 18.75 µM | Escherichia coli MITC95 [2, 9]: 2.344 µM | Klebsiella pneumoniae MITC95 [3, 10]: 50 µM | IC50 (VIM-1; [11]): 52.9 nM | IC50 (IMP-1; [12]): 263 nM

NS(=O)(=O)c1nccc(N2CCC(Cc3ccncc3)CC2)c1-c1nnn[nH]1 [Example 238, 4-[4-(pyridin-4-ylmethyl)piperidin-1-yl]-3-(1H-tetrazol-5-yl)pyridine-2-sulfonamide]
IC50 (NDM-1; [4]): 30.8 nM | Serratia marcescens expressing IMP-1 (CL5741) MITC95 [1]: 9.375 µM | Escherichia coli expressing NDM-1 (CLB 30016) MITC95 [2]: 3.125 µM | Klebsiella pneumoniae expressing VIM-1 (IHMA 599644) MITC95 [3]: 125 µM | IC50 (VIM-1; [23]): 96.9 nM | IC50 (IMP-1; [6]): 188 nM

NS(=O)(=O)c1c(CC2CCN(CC3CNC3)CC2)ccc(-c2ccc(C3CCNCC3)cc2)c1-c1nn[nH]n1 [Example 471, 4-((1-(azetidin-3-ylmethyl)piperidin-4-yl)methyl)-4′-(piperidin-4-yl)-2-(2H-tetrazol-5-yl)-[1,1′-biphenyl]-3-sulfonamide]
IC50 (NDM-1; [16]): 2.72 nM | Serratia marcescens MITC95 [1, 17]: 1.563 µM | Escherichia coli MITC95 [2, 18]: 0.7813 µM | Klebsiella pneumoniae MITC95 [3, 19]: 1.563 µM | IC50 (VIM-1; [20]): 2.05 nM | IC50 (IMP-1; [21]): 8.68 nM

CC(NCc1ccc(-c2cccc(S(N)(=O)=O)c2-c2nnn[nH]2)cc1)C(=O)O (stereo not drawn) [Example 358, N-{[3′-sulfamoyl-2′-(1H-tetrazol-5-yl)biphenyl-4-yl]methyl}alanine]
IC50 (NDM-1; [16]): 32.8 nM | Serratia marcescens MITC95 [1, 17]: 4.688 µM | Escherichia coli MITC95 [2, 18]: 3.125 µM | Klebsiella pneumoniae MITC95 [3, 19]: 75 µM | IC50 (VIM-1; VIM-1 IC50, VIM-1 enzyme, CCF2-FA fluorescence assay): 387 nM | IC50 (IMP-1; [21]): 288 nM

NS(=O)(=O)c1c(C(F)(F)F)ccc(-c2ccc(C3CN(CC4CCNC4)C3)cc2)c1-c1nnn[nH]1 (stereo not drawn) [Example 818, 4′-[1-(pyrrolidin-3-ylmethyl)azetidin-3-yl]-2-(1H-tetrazol-5-yl)-4-(trifluoromethyl)biphenyl-3-sulfonamide]
IC50 (NDM-1; [4]): 4.38 nM | Serratia marcescens MITC95 [1, 13]: 3.125 µM | Escherichia coli MITC95 [2, 14]: 1.563 µM | Klebsiella pneumoniae MITC95 [3, 15]: 12.5 µM | IC50 (VIM-1; [5]): 17.2 nM | IC50 (IMP-1; [6]): 8.6 nM
